Test results as given in patent US20250129090A1, “COMPOSITIONS USEFUL FOR MODULATING SPLICING” (SKYHAWK THERAPEUTICS, INC., priority 2021, published 2025).
pEC50, pIC50: −log10 of the molar value.

Columns and labels:
[1] = test system: exon 4 skipped transcripts of ATXN3; assay: ATXN3 Quantitative Splicing Assay; assay type: cell-based; settings: Human neuroblastoma SK-N-MC cells, treated 24 h, qPCR; read-out: ATXN 3 E4 Skipping EC50
Experimental: Human neuroblastoma SK-N-MC cells were plated in 384-well plates at 20,000 cells/well. Twenty-four hours after plating, cells were treated with compounds for 24 h at appropriate concentrations ranging from 30 µM to 0.6 nM (0.3% DMSO). Treated cells were lysed in 15 μL of lysis buffer, and cDNA was synthesized using the Fast Advanced Cells-to-Ct kit. Two μL of each cDNA was used in qPCR reactions to confirm the exon 4 skipped transcripts of ATXN3. A second set of primers/probe E4E5 was used to detect the transcripts containing exon 4. The third set of primers/probe E8E9 was used to detect total gene level of ATXN3. The qPCR reactions were prepared in 384-well plates in 10 μL volume, using TaqMan™ Fast Advanced Master Mix with primers and probes shown in the table below. Reactions were run in a Quant Studio 6 qPCR instrument with default settings.
The primers and probes are listed below in Table 3.

total ATXN3 protein = assay: ATXN3 Total Protein Assay; assay type: cell-based; settings: Human neuroblastoma SK-N-MC cells, incubation 48 hours, MSD assay; read-out: ATXN3 Protein Potency IC50
Experimental: Human neuroblastoma SK-N-MC cells were seeded at 10,000 cells/well in 384 well plates one day prior to compound treatment. The concentrations of compounds were tested at appropriate doses ranging from 30 μM to 0.6 nM. After incubation for 48 hours, the cells were lysed with 25 μL of lysis buffer containing protease inhibitors, and total ATXN3 protein levels were assessed by Mesoscale Discovery (MSD) assay developed with one pair of anti-ATXN3 antibodies. The capture and detect antibodies were raised in mouse and rabbit respectively. Anti-rabbit MSD-ST antibody was used for secondary antibody.
ATXN3 recombinant protein was used for standards. The readouts were captured with 35 μL of MSD read buffer and multi-array 384-well high binding plates.

Cc1csc2c(NCc3ccco3)nnnc12 [Compound 3, N-(furan-2-ylmethyl)-7-methylthieno[3,2-d][1,2,3]triazin-4-amine] showed a pEC50 [1] of at most 5.00 and a pIC50 (total ATXN3 protein) of at most 5.00.
For Cc1csc2c(NCc3cccs3)nnnc12 [Compound 1, 7-methyl-N-(thiophen-2-ylmethyl)thieno[3,2-d][1,2,3]triazin-4-amine], the pEC50 [1] was at most 5.00 and the pIC50 (total ATXN3 protein) was at most 5.00.
Cc1c(C[C@H](C)N)sc2c(NCc3ccco3)nnnc12 [Compound 4, (S)-6-(2-aminopropyl)-N-(furan-2-ylmethyl)-7-methylthieno[3,2-d][1,2,3]triazin-4-amine] showed a pEC50 [1] of at most 5.00 and a pIC50 (total ATXN3 protein) of 5.30 to 6.30.
Work on Cc1c(C[C@H](C)N)sc2c(NCc3cccs3)nnnc12 [Compound 2, (S)-6-(2-aminopropyl)-7-methyl-N-(thiophen-2-ylmethyl)thieno[3,2-d][1,2,3]triazin-4-amine] yielded a pEC50 [1] of 5.30 to 6.30 and a pIC50 (total ATXN3 protein) of 5.30 to 6.30.
